{"source": "patent US10729708B2", "about": "“Stabilized glycopeptide antibiotic formulations” (XELLIA PHARMACEUTICALS APS, priority 2016, dated 2020)", "origin": "cited, not measured here", "details_in_all_cases": "QC strain, CLSI protocol", "key": {"[1]": {"system": "Staphylococcus aureus ATCC 29213"}, "[2]": {"system": "Enterococcus faecalis ATCC 29212"}, "[3]": {"system": "Streptococcus pnemoniae ATCC 49619"}}, "data": [{"smiles": "CN[C@H](CC(C)C)C(=O)NC1C(=O)N[C@@H](CC(N)=O)C(=O)N[C@H]2C(=O)N[C@H]3C(=O)NC(C(=O)N[C@@H](C(=O)O)c4cc(O)cc(O)c4-c4cc3ccc4O)[C@H](O)c3ccc(c(Cl)c3)Oc3cc2cc(c3O[C@@H]2OC(CO)[C@@H](O)C(O)C2O[C@H]2CC(C)(N)[C@H](O)C(C)O2)Oc2ccc(cc2Cl)C1O.Cl", "note": "(stereo partly drawn) [Vancomycin]", "values": [{"measurement": "Referent MIC ranges", "setting": "[1]", "result": "0.5 to 2", "unit": "µg/mL"}, {"measurement": "Referent MIC ranges", "setting": "[2]", "result": "1 to 4", "unit": "µg/mL"}, {"measurement": "Referent MIC ranges", "setting": "[3]", "result": "0.125 to 0.5", "unit": "µg/mL"}]}]}
